Here are results for 5 molecules from patent US12252524B2, “GIP/GLP1 co-agonist compounds” (Eli Lilly and Company, priority 2018, dated 2025).

By EC50 is commonly meant the concentration at which the effect is half-maximal.

The target of experiment [1] is human GLP-1 receptor (GLP-1R) (Homo sapiens, UniProt P43220). Kind of experiment: cAMP pharmacological functional assay in presence of casein, hGLP-1R. Type of experiment: cell-based. The following applies: HEK293 cells expressing hGLP-1R, 0.1% Casein, geometric mean; read-out: hGLP1R cAMP Rel EC50 nM (SEM, n).
human GLP-1 receptor (GLP-1R), sequence (P43220 24-463): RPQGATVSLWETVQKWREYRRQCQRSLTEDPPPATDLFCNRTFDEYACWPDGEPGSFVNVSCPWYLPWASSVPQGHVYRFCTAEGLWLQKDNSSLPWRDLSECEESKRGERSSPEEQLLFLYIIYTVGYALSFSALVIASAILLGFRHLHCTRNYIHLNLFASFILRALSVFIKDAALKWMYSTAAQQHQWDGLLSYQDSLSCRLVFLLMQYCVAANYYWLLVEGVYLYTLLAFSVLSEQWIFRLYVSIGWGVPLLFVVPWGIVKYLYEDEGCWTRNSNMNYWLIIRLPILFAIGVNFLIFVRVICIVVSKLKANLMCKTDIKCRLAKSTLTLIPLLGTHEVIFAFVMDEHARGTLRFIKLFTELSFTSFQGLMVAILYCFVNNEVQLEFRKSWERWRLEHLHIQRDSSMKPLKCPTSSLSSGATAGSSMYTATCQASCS
In experiment [2] the target is T1, gastric inhibitory peptide receptor (GIPR) (Homo sapiens, UniProt P48546).
T1 sequence (P48546 22-466): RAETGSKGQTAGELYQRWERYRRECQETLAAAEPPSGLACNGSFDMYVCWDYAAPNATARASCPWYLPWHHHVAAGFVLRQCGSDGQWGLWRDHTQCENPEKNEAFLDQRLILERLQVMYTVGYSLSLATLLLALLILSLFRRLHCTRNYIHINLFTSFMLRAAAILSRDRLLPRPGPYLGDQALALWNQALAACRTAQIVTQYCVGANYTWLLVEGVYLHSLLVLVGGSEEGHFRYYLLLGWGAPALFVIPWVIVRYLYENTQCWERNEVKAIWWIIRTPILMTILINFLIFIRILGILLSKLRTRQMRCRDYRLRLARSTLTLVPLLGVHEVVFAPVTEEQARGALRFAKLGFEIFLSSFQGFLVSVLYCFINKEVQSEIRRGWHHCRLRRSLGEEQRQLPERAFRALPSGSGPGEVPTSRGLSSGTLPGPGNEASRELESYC
Nature of the experiment: cAMP pharmacological functional assay in presence of casein, hGIPR. Type of experiment: cell-based. The following applies: HEK293 cells expressing hGIPR, 0.1% Casein, geometric mean; read-out: hGIPR cAMP Rel EC50 nM (SEM, n).

Experiment [3] addresses T2, human GLP-1R (Homo sapiens, UniProt P43220). Kind of experiment: GLP-1R CHO cell β-arrestin recruitment assay. The following applies: for EC50: CHO-K1 cells, PathHunter β-arrestin-2 recruitment, 0.1% casein, read-out: hGLP1R B-Arrestin2 Rel EC50 uM (SEM, n); for hGLP1R B-Arrestin2 % Top: normalized to GLP-1 maximum control. Set-up: host or cells: CHO-K1 PathHunter cells, assay-ready frozen. Type of experiment: cell-based. In outline: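 Peptide-induced β-arrestin-2 recruitment measured by enzyme-fragment complementation luminescence after 90 min at 37 °C plus 60 min detection at RT.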
A general note: Arrestin recruitment assays detect the binding of arrestin to an activated receptor.

Experiment [4] deals with T2, human GLP-1R. Nature of the experiment: GLP-1R HEK293 cell membrane [35S]GTPγS binding assay. The class given is biochemical. Details: expressed in transfected cells; host or cells: HEK293 cells expressing human GLP-1R; membranes. The following applies: HEK293 cell membranes expressing human GLP-1R, [35S]GTPγS binding; read-out: hGLP1R GTPgS Rel EC50 nM (SEM, n). In a few lines: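 Agonist-driven Gαs activation read as [35S]GTPγS ([…]) binding to receptor-expressing HEK293 membranes, 30 min at room temperature, pH 7.4. Detection by anti-Gαs immunocapture on scintillation beads; EC50 derived from four-parameter logistic concentration-response fit.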
A general note: GTPγS is a poorly hydrolysed GTP analogue; its binding reports G protein activation.

SMILES strings stand for the structures. Numbered stars: 1 amine (or outer) side, 2 acyl side, 3 side chain; on linkers, the order of the positions; unused ones are H or OH. Square brackets hold non-standard residues; d marks the D form. Side chains are listed from the residue outwards. Peptide text beside a SMILES is read from it. * marks the point of attachment. C20 diacid = O=C(O)CCCCCCCCCCCCCCCCCCC(=O)*; C18 diacid = O=C(O)CCCCCCCCCCCCCCCCC(=O)*; γGlu = O=C(O)[C@H](CCC(=O)[*:2])N[*:1]; αMeY = C[C@](N)(Cc1ccc(O)cc1)C(=O)O; αMeL = CC(C)C[C@](C)(N)C(=O)O; Orn = NCCC[C@H](N)C(=O)O; AEEA = NCCOCCOCC(=O)O; Aib = CC(C)(N)C(=O)O

T2 sequence (P43220 24-463): as the sequence (P43220 24-463) above

For `CC[C@H](C)[C@H](NC(=O)[C@H](CC(C)C)NC(=O)[C@](C)(Cc1ccc(O)cc1)NC(=O)[C@H](CCC(=O)O)NC(=O)[C@@H](NC(=O)[C@H](Cc1ccccc1)NC(=O)[C@H](C)NC(=O)C(C)(C)NC(=O)[C@H](CCC(N)=O)NC(=O)[C@H](C)NC(=O)[C@H](CCCCNC(=O)COCCOCCNC(=O)COCCOCCNC(=O)CC[C@H](NC(=O)CCCCCCCCCCCCCCCCCCC(=O)O)C(=O)O)NC(=O)[C@H](CCCN)NC(=O)[C@H](CC(=O)O)NC(=O)[C@H](CC(C)C)NC(=O)[C@](C)(CC(C)C)NC(=O)[C@@H](NC(=O)[C@H](CO)NC(=O)[C@H](Cc1ccc(O)cc1)NC(=O)[C@H](CC(=O)O)NC(=O)[C@H](CO)NC(=O)[C@@H](NC(=O)[C@H](Cc1ccccc1)NC(=O)[C@@H](NC(=O)CNC(=O)[C@H](CCC(=O)O)NC(=O)C(C)(C)NC(=O)[C@H](N)Cc1ccc(O)cc1)[C@@H](C)O)[C@@H](C)O)[C@@H](C)CC)[C@@H](C)CC)C(=O)N[C@@H](C)C(=O)NCC(=O)NCC(=O)N1CCC[C@H]1C(=O)N[C@@H](CO)C(=O)N[C@@H](CO)C(=O)NCC(=O)N[C@@H](C)C(=O)N1CCC[C@H]1C(=O)N1CCC[C@H]1C(=O)N1CCC[C@H]1C(=O)N[C@@H](CO)C(N)=O` [Example 366] (H-[dY][Aib]EGTFTSDYSI[αMeL]LD[Orn]K([AEEA-AEEA-γGlu-C20 diacid])AQ[Aib]AFIE[αMeY]LIAGGPSSGAPPPS-NH2), the 50% effective concentration (EC50) in experiment [1] came to 0.366 nM; in experiment [2] it was 0.0889 nM; in experiment [3], 0.00557 µM; in experiment [4] it was 0.409 nM. Besides, the “hGLP1R B-Arrestin2 % Top” value in experiment [3] was found to be 21.2%.

As to `CC[C@H](C)[C@H](NC(=O)[C@H](CC(C)C)NC(=O)[C@H](Cc1ccc(O)cc1)NC(=O)[C@H](CCC(=O)O)NC(=O)[C@@H](NC(=O)[C@H](Cc1ccccc1)NC(=O)[C@H](CCC(=O)O)NC(=O)C(C)(C)NC(=O)[C@H](CCC(N)=O)NC(=O)[C@H](C)NC(=O)[C@H](CCCCNC(=O)COCCOCCNC(=O)COCCOCCNC(=O)CC[C@H](NC(=O)CCCCCCCCCCCCCCCCC(=O)O)C(=O)O)NC(=O)[C@H](CCCN)NC(=O)[C@H](CC(=O)O)NC(=O)[C@H](CC(C)C)NC(=O)[C@](C)(CC(C)C)NC(=O)[C@@H](NC(=O)[C@H](CO)NC(=O)[C@H](Cc1ccc(O)cc1)NC(=O)[C@H](CC(=O)O)NC(=O)[C@H](CO)NC(=O)[C@@H](NC(=O)[C@H](Cc1ccccc1)NC(=O)[C@@H](NC(=O)CNC(=O)[C@H](CCC(=O)O)NC(=O)C(C)(C)NC(=O)[C@H](N)Cc1ccc(O)cc1)[C@@H](C)O)[C@@H](C)O)[C@@H](C)CC)[C@@H](C)CC)C(=O)N[C@@H](C)C(=O)NCC(=O)NCC(=O)N1CCC[C@H]1C(=O)N[C@@H](CO)C(=O)N[C@@H](CO)C(=O)NCC(=O)N[C@@H](C)C(=O)N1CCC[C@H]1C(=O)N1CCC[C@H]1C(=O)N1CCC[C@H]1C(=O)N[C@@H](CO)C(N)=O` [Example 368] (H-[dY][Aib]EGTFTSDYSI[αMeL]LD[Orn]K([AEEA-AEEA-γGlu-C18 diacid])AQ[Aib]EFIEYLIAGGPSSGAPPPS-NH2), the 50% effective concentration (EC50) was found to be 0.108 nM in experiment [1], 0.0757 nM in experiment [2], 0.0479 µM in experiment [3] and 0.495 nM in experiment [4]. In addition, the “hGLP1R B-Arrestin2 % Top” value in experiment [3] worked out at 21.3%.

For `CC[C@H](C)[C@H](NC(=O)[C@H](CC(C)C)NC(=O)[C@H](Cc1ccc(O)cc1)NC(=O)[C@H](CCC(=O)O)NC(=O)[C@@H](NC(=O)[C@H](Cc1ccccc1)NC(=O)[C@H](CC(=O)O)NC(=O)C(C)(C)NC(=O)[C@H](CCC(N)=O)NC(=O)[C@H](C)NC(=O)[C@H](CCCCNC(=O)COCCOCCNC(=O)COCCOCCNC(=O)CC[C@H](NC(=O)CCCCCCCCCCCCCCCCCCC(=O)O)C(=O)O)NC(=O)[C@H](CCCN)NC(=O)[C@H](CC(=O)O)NC(=O)[C@H](CC(C)C)NC(=O)[C@](C)(CC(C)C)NC(=O)[C@@H](NC(=O)[C@H](CO)NC(=O)[C@H](Cc1ccc(O)cc1)NC(=O)[C@H](CC(=O)O)NC(=O)[C@H](CO)NC(=O)[C@@H](NC(=O)[C@H](Cc1ccccc1)NC(=O)[C@@H](NC(=O)CNC(=O)[C@H](CCC(=O)O)NC(=O)C(C)(C)NC(=O)[C@H](N)Cc1ccc(O)cc1)[C@@H](C)O)[C@@H](C)O)[C@@H](C)CC)[C@@H](C)CC)C(=O)N[C@@H](C)C(=O)NCC(=O)NCC(=O)N1CCC[C@H]1C(=O)N[C@@H](CO)C(=O)N[C@@H](CO)C(=O)NCC(=O)N[C@@H](C)C(=O)N1CCC[C@H]1C(=O)N1CCC[C@H]1C(=O)N1CCC[C@H]1C(=O)N[C@@H](CO)C(N)=O` [Example 369] (H-[dY][Aib]EGTFTSDYSI[αMeL]LD[Orn]K([AEEA-AEEA-γGlu-C20 diacid])AQ[Aib]DFIEYLIAGGPSSGAPPPS-NH2; N-terminus assumed), the EC50 in experiment [1] was found to be 0.101 nM; in experiment [2], 0.166 nM; in experiment [3], 0.0414 µM; in experiment [4] it was 0.381 nM. Also, the “hGLP1R B-Arrestin2 % Top” value in experiment [3] was 19.9%.

In the case of `CC[C@H](C)[C@H](NC(=O)[C@H](CC(C)C)NC(=O)[C@H](Cc1ccc(O)cc1)NC(=O)[C@H](CCC(=O)O)NC(=O)[C@@H](NC(=O)[C@H](Cc1ccccc1)NC(=O)[C@H](CCC(=O)O)NC(=O)C(C)(C)NC(=O)[C@H](CCC(N)=O)NC(=O)[C@H](C)NC(=O)[C@H](CCCCNC(=O)COCCOCCNC(=O)COCCOCCNC(=O)CC[C@H](NC(=O)CCCCCCCCCCCCCCCCCCC(=O)O)C(=O)O)NC(=O)[C@H](CCCN)NC(=O)[C@H](CC(=O)O)NC(=O)[C@H](CC(C)C)NC(=O)[C@](C)(CC(C)C)NC(=O)[C@@H](NC(=O)[C@H](CO)NC(=O)[C@H](Cc1ccc(O)cc1)NC(=O)[C@H](CC(=O)O)NC(=O)[C@H](CO)NC(=O)[C@@H](NC(=O)[C@H](Cc1ccccc1)NC(=O)[C@@H](NC(=O)CNC(=O)[C@H](CCC(=O)O)NC(=O)C(C)(C)NC(=O)[C@H](N)Cc1ccc(O)cc1)[C@@H](C)O)[C@@H](C)O)[C@@H](C)CC)[C@@H](C)CC)C(=O)N[C@@H](C)C(=O)NCC(=O)NCC(=O)N1CCC[C@H]1C(=O)N[C@@H](CO)C(=O)N[C@@H](CO)C(=O)NCC(N)=O` [Example 370] (H-[dY][Aib]EGTFTSDYSI[αMeL]LD[Orn]K([AEEA-AEEA-γGlu-C20 diacid])AQ[Aib]EFIEYLIAGGPSSG-NH2), the EC50 in experiment [1] stood at 0.186 nM; in experiment [2] it was 0.117 nM; in experiment [3], 0.0099 µM; in experiment [4] it was 0.428 nM. In addition, the “hGLP1R B-Arrestin2 % Top” value in experiment [3] is given as 23.0%.

In the case of `CC[C@H](C)[C@H](NC(=O)[C@H](CC(C)C)NC(=O)[C@H](Cc1ccc(O)cc1)NC(=O)[C@H](CCC(=O)O)NC(=O)[C@@H](NC(=O)[C@H](Cc1ccccc1)NC(=O)[C@H](CCC(=O)O)NC(=O)C(C)(C)NC(=O)[C@H](CCC(N)=O)NC(=O)[C@H](C)NC(=O)[C@H](CCCCNC(=O)COCCOCCNC(=O)CC[C@H](NC(=O)CCCCCCCCCCCCCCCCCCC(=O)O)C(=O)O)NC(=O)[C@H](CCCN)NC(=O)[C@H](CC(=O)O)NC(=O)[C@H](CC(C)C)NC(=O)[C@](C)(CC(C)C)NC(=O)[C@@H](NC(=O)[C@H](CO)NC(=O)[C@H](Cc1ccc(O)cc1)NC(=O)[C@H](CC(=O)O)NC(=O)[C@H](CO)NC(=O)[C@@H](NC(=O)[C@H](Cc1ccccc1)NC(=O)[C@@H](NC(=O)CNC(=O)[C@H](CCC(=O)O)NC(=O)C(C)(C)NC(=O)[C@H](N)Cc1ccc(O)cc1)[C@@H](C)O)[C@@H](C)O)[C@@H](C)CC)[C@@H](C)CC)C(=O)N[C@@H](C)C(=O)NCC(=O)NCC(=O)N1CCC[C@H]1C(=O)N[C@@H](CO)C(=O)N[C@@H](CO)C(=O)NCC(=O)N[C@@H](C)C(=O)N1CCC[C@H]1C(=O)N1CCC[C@H]1C(=O)N1CCC[C@H]1C(=O)N[C@@H](CO)C(N)=O` [Example 371] (H-[dY][Aib]EGTFTSDYSI[αMeL]LD[Orn]K([AEEA-γGlu-C20 diacid])AQ[Aib]EFIEYLIAGGPSSGAPPPS-NH2), the concentration giving a half-maximal response (EC50) came to 0.132 nM in experiment [1], 0.135 nM in experiment [2], 0.0142 µM in experiment [3] and 0.27 nM in experiment [4]. In addition, in experiment [3], the “hGLP1R B-Arrestin2 % Top” value is given as 21.7%.
